{"source": "ChEMBL document CHEMBL5465560", "about": "“Selectivity Literature for EUbOPEN Chemogenomic Library” (2024)", "key": {"[1]": {"target": "Tyrosine-protein kinase BTK (Homo sapiens, UniProt Q06187)", "sequence (Q06187 whole entry)": "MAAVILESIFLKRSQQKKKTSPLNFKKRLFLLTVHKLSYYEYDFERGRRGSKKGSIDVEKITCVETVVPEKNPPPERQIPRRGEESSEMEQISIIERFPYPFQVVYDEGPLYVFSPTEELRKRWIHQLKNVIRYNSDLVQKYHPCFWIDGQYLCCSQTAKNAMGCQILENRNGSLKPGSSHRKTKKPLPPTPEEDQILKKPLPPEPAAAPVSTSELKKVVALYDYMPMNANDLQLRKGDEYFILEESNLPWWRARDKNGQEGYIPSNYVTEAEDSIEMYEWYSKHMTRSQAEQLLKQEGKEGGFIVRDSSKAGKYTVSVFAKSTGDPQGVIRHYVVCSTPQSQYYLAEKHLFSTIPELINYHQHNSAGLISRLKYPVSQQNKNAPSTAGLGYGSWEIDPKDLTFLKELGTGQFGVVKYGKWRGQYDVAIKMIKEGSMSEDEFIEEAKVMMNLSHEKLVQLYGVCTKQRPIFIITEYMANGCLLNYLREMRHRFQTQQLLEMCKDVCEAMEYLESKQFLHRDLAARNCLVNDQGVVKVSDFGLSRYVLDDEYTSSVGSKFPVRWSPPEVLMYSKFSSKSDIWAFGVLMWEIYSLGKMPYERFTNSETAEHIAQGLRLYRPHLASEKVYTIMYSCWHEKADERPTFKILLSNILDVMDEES", "assay": "Selectivity interaction (KinomeScan (DiscoverX)) EUB0000595a BTK", "conditions": "at 10 µM"}, "[2]": {"test_system": "Tyrosine-protein kinase ABL1 (Homo sapiens), P00519 [T315I]", "assay": "Selectivity interaction (KinomeScan (DiscoverX)) EUB0000229b ABL1", "conditions": "at 1 µM"}, "[3]": {"target": "Cyclin-dependent kinase 11B (Homo sapiens) (UniProt P21127)", "sequence (P21127 whole entry)": "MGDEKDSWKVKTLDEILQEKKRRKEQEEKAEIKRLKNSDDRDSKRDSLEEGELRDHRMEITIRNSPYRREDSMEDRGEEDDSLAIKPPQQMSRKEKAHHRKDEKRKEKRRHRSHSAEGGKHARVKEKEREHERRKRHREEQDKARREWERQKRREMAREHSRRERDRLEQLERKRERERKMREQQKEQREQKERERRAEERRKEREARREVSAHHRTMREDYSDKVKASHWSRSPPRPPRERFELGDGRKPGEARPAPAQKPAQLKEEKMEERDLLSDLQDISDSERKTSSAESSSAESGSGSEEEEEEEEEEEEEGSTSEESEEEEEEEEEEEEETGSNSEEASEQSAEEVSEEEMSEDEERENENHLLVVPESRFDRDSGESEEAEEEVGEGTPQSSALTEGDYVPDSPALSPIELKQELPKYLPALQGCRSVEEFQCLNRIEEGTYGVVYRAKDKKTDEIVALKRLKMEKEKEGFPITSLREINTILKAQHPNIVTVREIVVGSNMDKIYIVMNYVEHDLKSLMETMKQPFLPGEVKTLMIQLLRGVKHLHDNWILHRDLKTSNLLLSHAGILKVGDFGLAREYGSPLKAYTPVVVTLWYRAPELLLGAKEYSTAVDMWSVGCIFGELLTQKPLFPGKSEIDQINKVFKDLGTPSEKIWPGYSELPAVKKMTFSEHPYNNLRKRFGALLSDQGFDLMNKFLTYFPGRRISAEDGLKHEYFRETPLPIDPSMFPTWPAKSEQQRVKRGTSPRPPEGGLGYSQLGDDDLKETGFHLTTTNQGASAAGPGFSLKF", "assay": "Selectivity interaction (KinomeScan (DiscoverX)) EUB0000229b CDK11B", "conditions": "at 10 µM"}, "[4]": {"target": "T1, Serine/threonine-protein kinase NLK (Homo sapiens) (UniProt Q9UBE8)", "T1 sequence (whole entry)": "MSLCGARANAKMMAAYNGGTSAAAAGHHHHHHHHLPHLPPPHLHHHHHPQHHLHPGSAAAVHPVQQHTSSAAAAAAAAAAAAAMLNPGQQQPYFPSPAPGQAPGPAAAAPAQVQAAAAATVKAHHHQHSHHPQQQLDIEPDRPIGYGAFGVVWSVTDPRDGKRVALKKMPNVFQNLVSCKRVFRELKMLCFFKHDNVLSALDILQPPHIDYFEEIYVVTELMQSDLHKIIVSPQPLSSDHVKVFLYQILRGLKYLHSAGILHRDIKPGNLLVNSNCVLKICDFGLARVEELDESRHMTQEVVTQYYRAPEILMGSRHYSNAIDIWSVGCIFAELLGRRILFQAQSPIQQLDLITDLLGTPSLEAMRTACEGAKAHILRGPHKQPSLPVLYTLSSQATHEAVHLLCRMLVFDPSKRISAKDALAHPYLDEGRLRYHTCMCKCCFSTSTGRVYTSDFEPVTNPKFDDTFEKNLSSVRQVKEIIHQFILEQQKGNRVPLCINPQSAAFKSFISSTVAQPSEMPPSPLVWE", "assay": "Selectivity interaction (KinomeScan (DiscoverX)) EUB0000229b NLK", "conditions": "at 10 µM"}, "[5]": {"target": "T2, Serine/threonine-protein kinase 36 (Homo sapiens) (UniProt Q9NRP7)", "T2 sequence (whole entry)": "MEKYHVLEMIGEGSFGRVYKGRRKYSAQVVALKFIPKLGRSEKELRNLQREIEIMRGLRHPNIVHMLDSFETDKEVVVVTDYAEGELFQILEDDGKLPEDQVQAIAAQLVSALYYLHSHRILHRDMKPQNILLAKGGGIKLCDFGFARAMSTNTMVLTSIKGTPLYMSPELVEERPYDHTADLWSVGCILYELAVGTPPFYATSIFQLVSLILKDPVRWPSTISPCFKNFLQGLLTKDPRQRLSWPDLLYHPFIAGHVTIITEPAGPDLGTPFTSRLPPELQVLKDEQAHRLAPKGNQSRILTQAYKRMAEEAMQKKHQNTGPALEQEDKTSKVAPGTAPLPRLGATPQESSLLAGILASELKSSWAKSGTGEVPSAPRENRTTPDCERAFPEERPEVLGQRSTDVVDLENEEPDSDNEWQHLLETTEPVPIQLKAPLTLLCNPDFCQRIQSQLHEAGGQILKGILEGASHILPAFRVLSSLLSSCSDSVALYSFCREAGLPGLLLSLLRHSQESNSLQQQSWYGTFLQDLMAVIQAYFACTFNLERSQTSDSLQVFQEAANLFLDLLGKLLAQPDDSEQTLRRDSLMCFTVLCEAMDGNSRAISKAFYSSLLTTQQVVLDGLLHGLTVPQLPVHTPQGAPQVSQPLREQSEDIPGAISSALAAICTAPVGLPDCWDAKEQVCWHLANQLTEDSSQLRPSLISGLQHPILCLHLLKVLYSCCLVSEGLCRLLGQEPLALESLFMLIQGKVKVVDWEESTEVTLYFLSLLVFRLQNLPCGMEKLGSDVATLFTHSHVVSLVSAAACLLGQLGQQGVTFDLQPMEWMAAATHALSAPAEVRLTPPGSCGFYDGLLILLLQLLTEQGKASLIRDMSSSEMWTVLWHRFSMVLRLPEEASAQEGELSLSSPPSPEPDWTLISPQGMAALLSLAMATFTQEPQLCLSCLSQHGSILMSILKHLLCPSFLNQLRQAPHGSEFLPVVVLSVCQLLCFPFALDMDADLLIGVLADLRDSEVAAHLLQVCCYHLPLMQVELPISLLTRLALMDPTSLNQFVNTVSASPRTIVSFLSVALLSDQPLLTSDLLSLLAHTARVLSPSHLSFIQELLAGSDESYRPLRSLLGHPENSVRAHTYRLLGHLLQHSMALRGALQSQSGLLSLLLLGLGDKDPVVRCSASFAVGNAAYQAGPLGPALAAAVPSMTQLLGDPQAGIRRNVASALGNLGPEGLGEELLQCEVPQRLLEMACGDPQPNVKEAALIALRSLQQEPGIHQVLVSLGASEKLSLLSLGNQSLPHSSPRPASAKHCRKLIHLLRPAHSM", "assay": "Selectivity interaction (KinomeScan (DiscoverX)) EUB0000229b STK36", "conditions": "at 10 µM"}, "[6]": {"target": "Tyrosine-protein kinase ABL2 (Homo sapiens, UniProt P42684)", "sequence (P42684 whole entry)": "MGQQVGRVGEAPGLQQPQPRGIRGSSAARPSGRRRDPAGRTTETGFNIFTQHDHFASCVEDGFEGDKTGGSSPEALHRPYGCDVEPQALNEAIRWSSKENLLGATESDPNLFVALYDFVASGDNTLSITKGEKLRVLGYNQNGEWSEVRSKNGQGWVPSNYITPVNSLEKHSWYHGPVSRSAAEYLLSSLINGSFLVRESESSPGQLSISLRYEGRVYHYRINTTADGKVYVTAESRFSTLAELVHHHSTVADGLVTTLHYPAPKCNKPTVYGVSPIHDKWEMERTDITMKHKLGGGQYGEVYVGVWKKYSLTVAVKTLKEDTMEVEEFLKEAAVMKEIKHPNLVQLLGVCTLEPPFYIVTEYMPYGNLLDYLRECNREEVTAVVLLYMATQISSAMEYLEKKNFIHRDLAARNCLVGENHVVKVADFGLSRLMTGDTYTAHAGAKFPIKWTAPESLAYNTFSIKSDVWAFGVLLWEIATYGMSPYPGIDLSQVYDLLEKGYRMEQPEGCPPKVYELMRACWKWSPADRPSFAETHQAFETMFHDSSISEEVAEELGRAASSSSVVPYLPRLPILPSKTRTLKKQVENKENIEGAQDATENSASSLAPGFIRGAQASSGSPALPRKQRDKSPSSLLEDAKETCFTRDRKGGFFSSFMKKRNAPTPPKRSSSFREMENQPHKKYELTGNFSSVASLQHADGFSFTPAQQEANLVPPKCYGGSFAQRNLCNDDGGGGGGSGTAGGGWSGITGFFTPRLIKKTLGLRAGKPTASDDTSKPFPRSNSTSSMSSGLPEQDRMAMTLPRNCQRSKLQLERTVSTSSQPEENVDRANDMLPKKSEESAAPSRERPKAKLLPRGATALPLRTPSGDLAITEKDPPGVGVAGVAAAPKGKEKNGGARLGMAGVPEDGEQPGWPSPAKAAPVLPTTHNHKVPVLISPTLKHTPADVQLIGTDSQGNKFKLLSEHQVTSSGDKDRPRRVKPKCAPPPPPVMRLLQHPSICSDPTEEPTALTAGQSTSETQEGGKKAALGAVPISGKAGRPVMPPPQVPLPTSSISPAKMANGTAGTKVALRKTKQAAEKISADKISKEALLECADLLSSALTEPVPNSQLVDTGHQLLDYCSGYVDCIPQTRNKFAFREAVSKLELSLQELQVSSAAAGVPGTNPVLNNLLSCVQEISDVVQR", "assay": "Selectivity interaction (KinomeScan (DiscoverX)) EUB0001049a ABL2", "conditions": "at 1 µM"}, "[7]": {"target": "T3, Uncharacterized serine/threonine-protein kinase SBK3 (Homo sapiens) (UniProt P0C264)", "T3 sequence (whole entry)": "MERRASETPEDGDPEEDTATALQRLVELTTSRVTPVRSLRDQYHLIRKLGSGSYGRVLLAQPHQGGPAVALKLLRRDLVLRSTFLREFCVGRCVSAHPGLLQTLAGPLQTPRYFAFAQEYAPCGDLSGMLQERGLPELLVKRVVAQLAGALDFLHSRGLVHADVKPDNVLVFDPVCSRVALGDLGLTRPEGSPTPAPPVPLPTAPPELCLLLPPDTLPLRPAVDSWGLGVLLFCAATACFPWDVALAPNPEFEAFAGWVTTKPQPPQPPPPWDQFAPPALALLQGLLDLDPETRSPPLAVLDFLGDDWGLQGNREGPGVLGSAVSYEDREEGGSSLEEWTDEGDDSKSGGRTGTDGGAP", "assay": "Selectivity interaction (KinomeScan (DiscoverX)) EUB0001049a SBK3", "conditions": "at 1 µM"}, "D(2) dopamine receptor": {"target": "D(2) dopamine receptor (Homo sapiens, UniProt P14416)", "sequence (P14416 whole entry)": "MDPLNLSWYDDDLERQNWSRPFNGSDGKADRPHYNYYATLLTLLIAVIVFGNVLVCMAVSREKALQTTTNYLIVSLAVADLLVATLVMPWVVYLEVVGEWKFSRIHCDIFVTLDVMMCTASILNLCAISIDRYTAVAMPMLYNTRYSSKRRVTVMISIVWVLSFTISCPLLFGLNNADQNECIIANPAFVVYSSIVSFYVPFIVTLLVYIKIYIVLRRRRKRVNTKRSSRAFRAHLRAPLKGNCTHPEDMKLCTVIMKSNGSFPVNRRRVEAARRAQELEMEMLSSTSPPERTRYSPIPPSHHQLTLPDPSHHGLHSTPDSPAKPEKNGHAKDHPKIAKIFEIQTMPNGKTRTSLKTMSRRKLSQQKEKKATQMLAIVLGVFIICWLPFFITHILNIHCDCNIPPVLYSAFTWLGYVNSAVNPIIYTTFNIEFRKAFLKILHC", "assay": "Selectivity interaction (Panel of kinases, GPCRs, ion channels and transporters (enzymatic assay)) EUB0000223bCl DRD2"}}}
{"smiles": "COCC(=O)NC/C=C/c1ccc2ncnc(Nc3ccc(Oc4ccc(C)nc4)c(C)c3)c2c1", "note": "[CP-724714]", "values": [{"measurement": "% of control", "setting": "[1]", "result": 68, "unit": "%"}]}
{"smiles": "COc1cc(N(C)c2ccnc3ccc(C(F)(F)F)cc23)cc(OC)c1OC", "values": [{"measurement": "% binding", "setting": "[2]", "result": 85, "unit": "%"}, {"measurement": "% binding", "setting": "[3]", "result": 85, "unit": "%"}, {"measurement": "% binding", "setting": "[4]", "result": 64, "unit": "%"}, {"measurement": "% binding", "setting": "[5]", "result": 100, "unit": "%"}]}
{"smiles": "COc1cc(Nc2nc(C)cc(-c3cnn4nc(OC)ccc34)n2)cc(C(F)(F)F)c1", "values": [{"measurement": "% of control", "setting": "[6]", "result": 76, "unit": "%"}, {"measurement": "% of control", "setting": "[7]", "result": 87, "unit": "%"}]}
{"smiles": "COc1cc(C(=O)N2CC[C@@H](O)[C@@H](N)C2)cc2nc(-c3cc4ccccc4n3CC3CC3)n(C)c12", "values": [{"measurement": "pXC50", "setting": "D(2) dopamine receptor", "result": "< 4", "unit": "M"}]}
